Data from ChEMBL document CHEMBL1201862, “PubChem BioAssay data set” (2004).
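Assay format: 96-well plates, 48-hour exposure. At the GI50, growth is halved.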 Activity calls are given as the source filed them. Cut-off read from the data, not from the text of the source: active = GI50 up to about 1.1 µM and inactive = higher.

Legend:
Test in all cases: NCI tumour cell line growth inhibition, 48 h
786-0 = system: 786-0
PC-3 = system: PC-3
HCT-116 = system: HCT-116
NCI-H460 = system: NCI-H460
HOP-92 = system: HOP-92
MDA-N = system: MDA-N
SN12C = system: SN12C
RPMI-8226 = system: RPMI-8226
SF-539 = system: SF-539
SK-OV-3 = system: SK-OV-3
COLO 205 = system: COLO 205
OVCAR-3 = system: OVCAR-3
SK-MEL-2 = system: SK-MEL-2
T47D = system: T47D
MOLT-4 = system: MOLT-4
UACC-257 = system: UACC-257
HT-29 = system: HT-29
OVCAR-5 = system: OVCAR-5
ACHN = system: ACHN
UACC-62 = system: UACC-62

Row | SMILES | GI50 (786-0) | GI50 (PC-3) | GI50 (HCT-116) | GI50 (NCI-H460) | GI50 (HOP-92) | GI50 (MDA-N) | GI50 (SN12C) | GI50 (RPMI-8226) | GI50 (SF-539) | GI50 (SK-OV-3) | GI50 (COLO 205) | GI50 (OVCAR-3) | GI50 (SK-MEL-2) | GI50 (T47D) | GI50 (MOLT-4) | GI50 (UACC-257) | GI50 (HT-29) | GI50 (OVCAR-5) | GI50 (ACHN) | GI50 (UACC-62)
1 | Cc1cc(-c2nc3ccccc3s2)ccc1N | 57.8 µM (inactive) | 26 µM (inactive) | 46.7 µM (inactive) | 27.2 µM (inactive) | > 100 µM (inactive) | 60.7 µM (inactive) | 32.9 µM (inactive) | 9.79 µM (inactive) | > 71.1 µM (inactive) | 55.5 µM (inactive) | 40.7 µM (inactive) | 35.9 µM (inactive) | 56.4 µM (inactive) | 0.0322 µM (active) | 13.5 µM (inactive) | 81.5 µM (inactive) | 40.3 µM (inactive) | 19.5 µM (inactive) | 45.4 µM (inactive) | 46.1 µM (inactive)
2 | O=[N+]([O-])c1ccc(S(=O)(=O)Cc2ccccc2)c([N+](=O)[O-])c1 | 1.58 µM (inactive) | 1.78 µM (inactive) | 1.87 µM (inactive) | 5.12 µM (inactive) | 1.79 µM (inactive) | 1.96 µM (inactive) | 1.91 µM (inactive) | 1.4 µM (inactive) | 1.99 µM (inactive) | 6.78 µM (inactive) | 1.79 µM (inactive) | 1.44 µM (inactive) | 2.82 µM (inactive) | 1.35 µM (inactive) | 0.139 µM (active) | 1.67 µM (inactive) | 2.18 µM (inactive) | 9.55 µM (inactive) | 1.58 µM (inactive) | 2.24 µM (inactive)
3 | NC(=O)C/C=C/CC(N)=O | > 100 µM (inactive) | > 100 µM (inactive) | > 100 µM (inactive) | > 100 µM (inactive) | > 100 µM (inactive) | > 100 µM (inactive) | > 100 µM (inactive) | > 100 µM (inactive) | > 100 µM (inactive) | > 100 µM (inactive) | > 100 µM (inactive) | > 100 µM (inactive) | > 100 µM (inactive) | > 100 µM (inactive) | 0.259 µM (active) | > 100 µM (inactive) | > 100 µM (inactive) | > 100 µM (inactive) | > 100 µM (inactive) | > 100 µM (inactive)
4 | COc1cc2nc3n(c(=O)c2cc1OC)CCCCC3 | > 100 µM (inactive) | > 100 µM (inactive) | > 100 µM (inactive) | > 100 µM (inactive) | > 100 µM (inactive) | > 100 µM (inactive) | > 100 µM (inactive) | 83.9 µM (inactive) | > 10 µM (inactive) | > 100 µM (inactive) | > 100 µM (inactive) | > 100 µM (inactive) | > 100 µM (inactive) | > 100 µM (inactive) | > 100 µM (inactive) | > 100 µM (inactive) | > 100 µM (inactive) | > 100 µM (inactive) | > 100 µM (inactive) | > 100 µM (inactive)
5 | NNC(=O)CC(=O)Nc1ccc(Cl)cc1 | > 100 µM (inactive) | > 100 µM (inactive) | > 100 µM (inactive) | > 100 µM (inactive) | > 100 µM (inactive) | > 100 µM (inactive) | > 100 µM (inactive) | > 100 µM (inactive) | > 100 µM (inactive) | > 100 µM (inactive) | > 100 µM (inactive) | > 100 µM (inactive) | > 100 µM (inactive) | > 100 µM (inactive) | > 100 µM (inactive) | > 100 µM (inactive) | > 100 µM (inactive) | > 100 µM (inactive) | 66.7 µM (inactive) | > 100 µM (inactive)
6 | O=c1[nH]c2ccccc2nc1CBr | 2.02 µM (inactive) | 12.6 µM (inactive) | 8.39 µM (inactive) | 11.4 µM (inactive) | 3.39 µM (inactive) | 12 µM (inactive) | 9.38 µM (inactive) | 2.06 µM (inactive) | 9.23 µM (inactive) | 21.5 µM (inactive) | 5.78 µM (inactive) | 1.57 µM (inactive) | 8.24 µM (inactive) | 12.5 µM (inactive) | 1.87 µM (inactive) | 13.2 µM (inactive) | 6.24 µM (inactive) | 17.7 µM (inactive) | 12.3 µM (inactive) | 8.11 µM (inactive)
7 | CCCCc1ccc(N2C(=O)c3cccnc3S2(=O)=O)cc1 | > 100 µM (inactive) | > 100 µM (inactive) | > 100 µM (inactive) | > 100 µM (inactive) | > 100 µM (inactive) | > 100 µM (inactive) | > 100 µM (inactive) | > 100 µM (inactive) | > 100 µM (inactive) | > 100 µM (inactive) | > 100 µM (inactive) | > 100 µM (inactive) | > 100 µM (inactive) | > 100 µM (inactive) | > 100 µM (inactive) | > 100 µM (inactive) | > 100 µM (inactive) | > 100 µM (inactive) | > 100 µM (inactive) | > 100 µM (inactive)
